Where a name gives a salt, the structure may show the parent alone.
Molecular target: human tryptase
Test: Inhibition of human tryptase (apparent dissociation constant, tos-Gly-Pro-Arg-pNA cleavage)
Format: biochemical
Details: in the presence of substrate; heparin 0.1–50 μg/ml; equilibrium conditions; read-out: Kiapp (apparent dissociation constant of tryptase-inhibitor complex)
Text: The documented pathophysiological effects of mast cell tryptase are caused directly by the enzymatic activity of the protease. Accordingly, they are reduced or blocked by inhibitors which inhibit the enzymatic activity of the tryptase. A suitable measure for the affinity of a reversible inhibitor to the target protease is the equilibrium dissociation constant Ki of the enzyme-inhibitor complex. This Ki value can be determined via the effect of the inhibitor on the tryptase-induced cleavage of a chromogenic peptide-p-nitroanilide substrate or a fluorogenic peptide-aminomethylcoumarin substrate.
The dissociation constants for the tryptase-inhibitor complexes are determined under equilibrium conditions in accordance with the general proposals of Bieth (Bieth J G, Pathophysiological interpretation of kinetic constants of protease inhibitors, Bull. Europ. Physiopath. Resp. 16:183–195, 1980) and the methods of Sommerhoff et al. (Sommerhoff C P et al., A Kazal-type inhibitor of human mast cell tryptase: isolation from the medical leech Hirudo medicinalis, characterization, and sequence analysis, Biol. Chem. Hoppe-Seyler 375: 685–694, 1994).
Human tryptase is isolated from lung tissue or prepared recombinantly; the specific activity of the protease, determined by titration, is usually greater than 85% of the theoretical value. In the presence of heparin (0.1–50 μg/ml) for stabilizing the protease, constant amounts of the tryptase are incubated with increasing amounts of the inhibitors. After an equilibrium between the reaction partners has formed, the remaining enzyme activity after addition of the peptide-p-nitroanilide substrate tos-Gly-Pro-Arg-pNA is determined and the cleavage of the latter is monitored at 405 nm for 3 min. Alternatively, the remaining enzymatic activity can also be determined using fluorogenic substrates. The apparent dissociation constants Kiapp (i.e. in the presence of substrate) are subsequently determined by adapting the enzyme rates to the general equation for reversible inhibitors (Morrison J F, Kinetics of the reversible inhibition of enzyme-catalysed reactions by tight-binding inhibitors, Biochim. Biophys. Acta 185, 269–286, 1969) using non-linear regression: V1/V0=1−{Et+It+Kiapp−[(Et+It+Kiapp)^2−4EtIt]^1/2}/2Et
V1 and V0 are the rates in the presence and absence, respectively, of the inhibitor, and Et and It are the tryptase and inhibitor concentrations, respectively.
The apparent dissociation constants determined for the compounds according to the invention are shown in Table A below, where the numbers of the compounds correspond to the numbers of the compounds in the examples.

Compound | Ki [nM]
NCc1ccc(CNC(=O)OCC#Cc2cc(C#CCOC(=O)NCc3ccc(CN)cc3)cc(C(=O)O)c2)cc1 [Compound 5, 3,5-Bis-[3-(4-aminomethylbenzylaminocarbonyloxy)prop-1-ynyl]benzoic acid dihydrochloride] | 250
CCOC(=O)c1cc(OCC#CCOC(=O)NCc2cccc(CN)c2)c(C(=O)OCC)cc1OCC#CCOC(=O)NCc1cccc(CN)c1 [Compound 9, Diethyl 2,5-bis-[4-(3-aminomethylbenzylaminocarbonyloxy)but-2-ynyl-1-oxy]terephthalate dihydrochloride] | 6
COC(=O)c1cc(C#CCOC(=O)NCc2ccc(CN)cc2)cc(C#CCOC(=O)NCc2ccc(CN)cc2)c1 [Compound 4, Methyl 3,5-bis-[3-(4-aminomethylbenzylaminocarbonyloxy)prop-1-ynyl]benzoate dihydrochloride] | 58
NCc1cccc(CNC(=O)OCC#Cc2ccc(C#CCOC(=O)NCc3cccc(CN)c3)c(C(=O)O)c2)c1 [Compound 7, 2,5-Bis-[3-(3-aminomethylbenzylaminocarbonyloxy)prop-1-ynyl]benzoic acid dihydrochloride] | 8.6
COC(=O)c1cc(C#CCOC(=O)NCc2cccc(CN)c2)ccc1C#CCOC(=O)NCc1cccc(CN)c1 [Compound 6, Methyl 2,5-bis-[3-(3-aminomethylbenzylaminocarbonyloxy)prop-1-ynyl]benzoate dihydrochloride] | 0.3
COC(=O)c1cc(C#CCOC(=O)NCc2cccc(CN)c2)cc(C#CCOC(=O)NCc2cccc(CN)c2)c1 [Compound 2, Methyl 3,5-bis-[3-(3-aminomethylbenzylaminocarbonyloxy)prop-1-ynyl]benzoate dihydrochloride] | 1.6
COC(=O)c1cc(C#CCOC(=O)NCc2cccc(CN)c2)c(C(=O)OC)cc1C#CCOC(=O)NCc1cccc(CN)c1 [Compound 8, Dimethyl 2,5-bis-[3-(3-aminomethylbenzylaminocarbonyloxy)prop-1-ynyl]terephthalate dihydrochloride] | 2.3
NCc1ccc(CNC(=O)OCC#Cc2cc(C#CCOC(=O)NCc3ccc(CN)cc3)cc(CO)c2)cc1 [Compound 1, 3,5-Bis-[3-(4-aminomethylbenzylaminocarbonyloxy)prop-1-ynyl]-1-hydroxymethyl-benzene dihydrochloride] | 14
NCc1cccc(CNC(=O)OCC#Cc2cc(C#CCOC(=O)NCc3cccc(CN)c3)cc(C(=O)O)c2)c1 [Compound 3, 3,5-Bis-[3-(3-aminomethylbenzylaminocarbonyloxy)prop-1-ynyl]benzoic acid dihydrochloride] | 40
